Like-named read-outs stand apart in the source and are kept apart here.
Columns and labels:
S. aureus (ATCC 29213) = assay: MIC80 on S. aureus; type: cell-based, Staphylococcus aureus; conditions: ≥80% growth inhibition
[1] = system: Staphylococcus saprophyticus (ATCC BAA-750); assay: MIC80 on S. saprophyticus; type: cell-based; conditions: S. saprophyticus ATCC BAA-750, read-out: MIC80 S. sapro
Procedure: To further characterize the compounds, the minimal inhibitory concentration (MIC80) were determined for selected compounds. MIC80 is defined as the compound concentration at which ≥80% bacterial growth is inhibited compare to untreated controls. Meanwhile, for the selected compounds, cytotoxicity assays (CC50) were performed on a HepG2-derived hepatoblastoma cell line (HEPDES19). […] For CC50 evaluation, soluble tetrazolium dye (MTS) was used to measure mitochondrial toxicity in a human hepatoblastoma cell line (18). The bacteria (E. coli, S. saprophyticus and A. baumannii) used in MIC80 measurements were the same as that in the primary screening, but for Staphylococcus, S. aureus is used primarily because it is a common pathogen in Staphylococcaeae family, while S. saprophyticus is part of the normal human flora.

E. coli (ATCC 35218) = assay: microbe, parasite or virus in culture; type: cell-based
[2] = system: Ps. aeruginosa (ATCC 27853); assay: MIC80 on Ps. aeruginosa; type: cell-based; conditions: Pseudomonas aeruginosa, ATCC27853
[3] = system: S. aureus ATCC strains and MRSA; type: cell-based, Staphylococcus aureus
[4] = system: Staphylococcus epidermidis; type: cell-based
Procedure: (§1) It was also tested whether compounds #63 and #285 can inhibit other coagulase-negative Staphylococcus (CNS) including S. epidermidis, S. hominis, etc. […].

Staphylococcus hominis = type: cell-based
Procedure: as §1

## O=C(O)c1cn(C2CC2)c2cc(N3CCNCC3)c(F)cc2c1=O [Compound 67, Ciprofloxacin]
S. aureus (ATCC 29213); S. aureus ATCC 29213 (MSSA)
  MIC80 S. aureus: <2.6 µM
S. aureus (ATCC 29213); Staphylococcus aureus, ATCC 29213 / MSSA, read-out: MIC80 S. aureus, S. aureus ATCC 29213 (MSSA)
  MIC80: < 2.9 µM
[1]
  MIC80: <2.9 µM
[1]; Staphylococcus saprophyticus, ATCCBAA750
  MIC80: < 2.9 µM
E. coli (ATCC 35218); E. coli ATCC 35218
  MIC80 E. coli: <2.9 µM
E. coli (ATCC 35218); Escherichia coli, ATCC35218, read-out: MIC80 E. coli, E. coli ATCC 35218
  MIC80: < 2.9 µM
[2]
  MIC80: < 2.9 µM
[3]; S. aureus ATCC 25923
  Antibiotic susceptibility: S
[3]; S. aureus ATCC 29213
  Antibiotic susceptibility: S
[3]; S. aureus ATCC BAA 976
  Antibiotic susceptibility: S
[3]; S. aureus ATCC BAA 977
  Antibiotic susceptibility: S
[3]; S. aureus ATCC BAA 1026
  Antibiotic susceptibility: R
[3]; Sa1 (MRSA)
  Antibiotic susceptibility: R
[3]; Sa2 (MRSA)
  Antibiotic susceptibility: R
[3]; Sa3 (MRSA)
  Antibiotic susceptibility: R
[3]; Sa5 (MRSA)
  Antibiotic susceptibility: R
[3]; Sa6 (MRSA)
  Antibiotic susceptibility: R
[3]; Sa7 (MRSA)
  Antibiotic susceptibility: S
[3]; Sa8 (MRSA)
  Antibiotic susceptibility: R
[3]; Sa9 (MRSA)
  Antibiotic susceptibility: R
[3]; Sa10 (MRSA)
  Antibiotic susceptibility: R
[3]; Sa11 (MRSA)
  Antibiotic susceptibility: R
[3]; Sa12 (MRSA)
  Antibiotic susceptibility: R
[3]; Sa14 (MRSA)
  Antibiotic susceptibility: R
[3]; Sa15 (MRSA)
  Antibiotic susceptibility: R
[3]; Sa16 (MRSA)
  Antibiotic susceptibility: R
[3]; Sa17 (MRSA)
  Antibiotic susceptibility: R
[3]; Sa18 (MRSA)
  Antibiotic susceptibility: R
[3]; Sa19 (MRSA)
  Antibiotic susceptibility: S
[3]; Sa20 (MRSA)
  Antibiotic susceptibility: R
[3]; Sa21 (MRSA)
  Antibiotic susceptibility: S
[3]; Sa22 (MRSA)
  Antibiotic susceptibility: S
[3]; Sa23 (MRSA)
  Antibiotic susceptibility: S
[4]
  Antibiotic susceptibility: R and S
Staphylococcus hominis
  Antibiotic susceptibility: R and S
